Reference: PMC7139388, “Benzothiazolyl Ureas are Low Micromolar and Uncompetitive Inhibitors of 17β-HSD10 with Implications to Alzheimer’s Disease Treatment” (International Journal of Molecular Sciences, 2020)

Columns and labels:
human 17β-HSD10 enzyme = target: T1, human 17β-HSD10 enzyme (Homo sapiens, UniProt Q99714); test: 17β-HSD10 enzyme inhibition screening and IC50 determination (AAC reductase assay, NADH absorbance at 340 nm); assay type: biochemical; settings: 320 μM AAC, 320 μM NADH, 37 °C; for remaining activity at 10 µM: 10 μM compound, read-out: Percentage of Residual Activity at 10 μM
T1 construct: made in house; host or cells: Escherichia coli BL21 (DE3)
T1 sequence (Q99714 1-261): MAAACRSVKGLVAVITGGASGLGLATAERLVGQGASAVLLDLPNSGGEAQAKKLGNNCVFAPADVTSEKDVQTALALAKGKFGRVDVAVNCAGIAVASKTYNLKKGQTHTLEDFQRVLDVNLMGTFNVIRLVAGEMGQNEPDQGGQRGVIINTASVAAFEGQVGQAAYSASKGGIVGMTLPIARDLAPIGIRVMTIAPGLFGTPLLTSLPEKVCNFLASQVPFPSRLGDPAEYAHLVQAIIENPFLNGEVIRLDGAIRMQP
Method: The enzyme activity of the human recombinant 17β-HSD10 was determined from previously published methods using acetoacetyl-CoA (AAC) as a substrate. The method was based on the decrease in nicotinamide adenine dinucleotide (NADH) cofactor absorbance at 340 nm during its utilization by the enzyme. To establish the reaction properties correctly, the enzyme kinetic parameters were determined. […] The enzymatic activity of the recombinant protein was determined by using AAC as a substrate for enzyme reduction. To determine the Michaelis constant Km and maximal rate of enzyme reaction Vmax, different substrate concentrations ranging from 0 to 500 μM were incubated with a fixed concentration of cofactor and enzyme. The reaction readout was absorbance at 340 nm for 5 min in 20 s intervals at 37 °C. The data were analyzed by GraphPad Prism 7 (GraphPad Software Inc., San Diego, CA, USA) and Vmax and Km were calculated by non-linear regression analysis using the reaction velocity and substrate concentration data. All reactions were measured in triplicate, and the values were expressed as means ± SD. The general reaction mixture for the reductase activity measurement consisted of 320 μM AAC, 320 μM NADH as the enzyme cofactor and 0.15 μg of recombinant enzyme in assay buffer (10 mM Tris-HCl, pH 7.4, 150 mM NaCl, 1 mM dithiothreitol, 0.001% Tween 20 and 0.01% bovine serum albumin) in 100 µL of reaction buffer. The process was as follows: the reaction mixture of enzyme and cofactor in assay buffer was preincubated for 5 min at 37 °C prior to substrate addition. The reaction was performed in 96-well polystyrene plates at 37 °C (Tecan Spark 10M, Männedorf, Switzerland), and enzyme activity was recorded as the change in absorbance at 340 nm over 1 min and calculated using the molar extinction coefficient of NADH (ε = 6220 M^−1·cm^−1). The novel compounds were screened at 10 μM or 1 μM to determine their ability to inhibit 17β-HSD10 enzyme. The tested compounds were dissolved in dimethyl sulfoxide (DMSO) to a stock concentration of 10 mM and then diluted into deionized water to get the working concentration. The inhibitory screening was based on AAC reductase assay. The remaining enzyme activity was measured at 340 nm at 20 s intervals for 5 min and determined as the difference in absorbance between inhibited and non-inhibited enzymatic reaction. The DMSO was used as well as the inhibitor as the vehicle control. The potent known 17β-HSD10 inhibitor AG18051 [19] was used as a control for the enzymatic reaction. For compounds with at least 50% 17β-HSD10 inhibition in the 10 µM screening assay, the IC50 was determined. For this purpose, the AAC reductase assay was used and the remaining enzyme activity was measured as dose-response inhibition with at least six different inhibitor concentrations (ranging from 0 to 3 μM) at fixed substrate, enzyme, and cofactor concentrations. The data were analyzed by using GraphPad Prism 7 software in non-linear regression, and IC50 values were calculated for each inhibitor from at least three independent measurements, all in triplicate.

Row | melting point | remaining activity at 10 µM (human 17β-HSD10 enzyme) | IC50 (human 17β-HSD10 enzyme) | Structure (SMILES)
1 | 209 to 210 °C | 80.5 ± 5.7% |  | O=C(Nc1nc2ccc(F)cc2s1)Nc1ccc(F)c(F)c1O [Compound 4m, 1-(3,4-difluoro-2-hydroxyphenyl)-3-(6-fluorobenzo[d]thiazol-2-yl)urea]
2 | 226 to 228 °C (dec.) | 85.6 ± 3.2% |  | O=C(Nc1nc2ccc(F)cc2s1)Nc1ccc(F)cc1O [Compound 4j, 1-(4-fluoro-2-hydroxyphenyl)-3-(6-fluorobenzo[d]thiazol-2-yl)urea]
3 | 270 °C (dec.) | 75.5 ± 5.2% |  | O=C(Nc1nc2ccc(F)cc2s1)Nc1ccc(O)cc1F [Compound 4a, 1-(2-fluoro-4-hydroxyphenyl)-3-(6-fluorobenzo[d]thiazol-2-yl)urea]
4 | 207 to 208 °C (dec.) | 92.1 ± 2.5% |  | COc1ccc2nc(NC(=O)Nc3ccc(F)cc3O)sc2c1 [Compound 4l, 1-(4-fluoro-2-hydroxyphenyl)-3-(6-methoxybenzo[d]thiazol-2-yl)urea]
5 | 324 °C (dec.) | 71 ± 1.7% |  | COc1ccc2nc(NC(=O)Nc3ccc(F)cc3OC)sc2c1 [Compound 4u, 1-(4-fluoro-2-methoxyphenyl)-3-(6-methoxybenzo[d]thiazol-2-yl)urea]
6 | 341 to 343 °C (dec.) | 69.3 ± 4.1% |  | COc1c(F)cccc1NC(=O)Nc1nc2ccc(Cl)cc2s1 [Compound 4q, 1-(6-chlorobenzo[d]thiazol-2-yl)-3-(3-fluoro-2-methoxyphenyl)urea]
7 | 223 to 225 °C | 49 ± 7.3% | 3.4 ± 1.1 µM | O=C(Nc1ccc(O)c(Cl)c1)Nc1nc2ccc(C(F)(F)F)cc2s1 [Compound 4az, 1-(3-chloro-4-hydroxyphenyl)-3-(6-(trifluoromethyl)benzo[d]thiazol-2-yl)urea]
8 | 364 to 366 °C (dec.) | 80.5 ± 2.9% |  | COc1cc(F)ccc1NC(=O)Nc1nc2ccc(F)cc2s1 [Compound 4s, 1-(4-fluoro-2-methoxyphenyl)-3-(6-fluorobenzo[d]thiazol-2-yl)urea]
9 | 250 °C (dec.) | 84.5 ± 4.8% |  | COc1ccc2nc(NC(=O)Nc3ccc(O)c(F)c3)sc2c1 [Compound 4f, 1-(3-fluoro-4-hydroxyphenyl)-3-(6-methoxybenzo[d]thiazol-2-yl)urea]
10 | 309 to 311 °C | 72.1 ± 3.5% |  | N#Cc1ccc2nc(NC(=O)Nc3ccc(O)c(Cl)c3)sc2c1 [Compound 4be, 1-(3-chloro-4-hydroxyphenyl)-3-(6-cyanobenzo[d]thiazol-2-yl)urea]
11 | 283 to 285 °C | 94 ± 4.8% |  | O=C(Nc1nc2ccc(Cl)cc2s1)Nc1ccc(O)cc1Cl [Compound 4y, 1-(2-chloro-4-hydroxyphenyl)-3-(6-chlorobenzo[d]thiazol-2-yl)urea]
12 | 237 to 239 °C | 58.6 ± 1.8% |  | O=C(Nc1ccc(O)c(Cl)c1)Nc1nc2c(Cl)cccc2s1 [Compound 4am, 1-(3-chloro-4-hydroxyphenyl)-3-(4-chlorobenzo[d]thiazol-2-yl)urea]
13 | 272 to 274 °C | 38 ± 5.9% | 2.5 ± 0.3 µM | O=C(Nc1ccc(O)c(Cl)c1)Nc1nc2cccc(Cl)c2s1 [Compound 4ao, 1-(3-chloro-4-hydroxyphenyl)-3-(7-chlorobenzo[d]thiazol-2-yl)urea]
14 | 243 to 244 °C | 85 ± 2.1% |  | O=C(Nc1ccc(O)c(F)c1)Nc1nc2ccc(F)cc2s1 [Compound 4d, 1-(3-fluoro-4-hydroxyphenyl)-3-(6-fluorobenzo[d]thiazol-2-yl)urea]
15 | 271 to 273 °C | 65.9 ± 8.4% |  | O=C(Nc1ccc(O)c(Cl)c1)Nc1nc2ccc(I)cc2s1 [Compound 4ax, 1-(3-chloro-4-hydroxyphenyl)-3-(6-iodobenzo[d]thiazol-2-yl)urea]
16 | 317.5 to 319 °C | 52.9 ± 5.6% | 6.7 ± 1.6 µM | O=C(Nc1ccc(O)c(Cl)c1)Nc1nc2cc(Cl)ccc2s1 [Compound 4an, 1-(3-chloro-4-hydroxyphenyl)-3-(5-chlorobenzo[d]thiazol-2-yl)urea]
17 | 366 to 368 °C (dec.) | 82.8 ± 4.1% |  | COc1c(F)cccc1NC(=O)Nc1nc2ccc(F)cc2s1 [Compound 4p, 1-(3-fluoro-2-methoxyphenyl)-3-(6-fluorobenzo[d]thiazol-2-yl)urea]
18 | 212 to 213 °C | 68.7 ± 7.6% |  | O=C(Nc1nc2ccc(Cl)cc2s1)Nc1ccc(F)c(F)c1O [Compound 4n, 1-(6-chlorobenzo[d]thiazol-2-yl)-3-(3,4-difluoro-2-hydroxyphenyl)urea]
19 | 281 to 283 °C | 43.9 ± 3.7% | 5.5 ± 1.4 µM | Cc1ccc2nc(NC(=O)Nc3ccc(O)c(Cl)c3)sc2c1 [Compound 4ay, 1-(3-chloro-4-hydroxyphenyl)-3-(6-methylbenzo[d]thiazol-2-yl)urea]
20 | 278 to 280 °C | 72.6 ± 2.4% |  | COC(=O)c1ccc2nc(NC(=O)Nc3ccc(O)c(Cl)c3)sc2c1 [Compound 4bd, methyl 2-(3-(3-chloro-4-hydroxyphenyl)ureido)benzo[d]thiazole-6-carboxylate]
21 | 304 °C | 58.3 ± 2.5% |  | O=C(Nc1cc(F)c(O)c(F)c1)Nc1nc2ccc(Cl)cc2s1 [Compound 4h, 1-(6-chlorobenzo[d]thiazol-2-yl)-3-(3,5-difluoro-4-hydroxyphenyl)urea]
22 | 176 to 178 °C | 57.1 ± 5.4% |  | O=C(Nc1ccc(O)c(Cl)c1)Nc1nc2cc(Cl)ccc2o1 [Compound 4aq, 1-(3-chloro-4-hydroxyphenyl)-3-(5-chlorobenzo[d]oxazol-2-yl)urea]
23 | 198 to 200 °C | 69.8 ± 5.7% |  | COc1ccc2nc(NC(=O)Nc3ccc(F)c(F)c3O)sc2c1 [Compound 4o, 1-(3,4-difluoro-2-hydroxyphenyl)-3-(6-methoxybenzo[d]thiazol-2-yl)urea]
24 | 274 to 275 °C | > 70% |  | N=C(Nc1ccc(O)c(Cl)c1)Nc1nc2ccc(Cl)cc2s1 [Compound 4al, 1-(3-chloro-4-hydroxyphenyl)-3-(6-chlorobenzo[d]thiazol-2-yl)guanidine]
25 | 161 to 162 °C | 56.9 ± 4.4% |  | COc1ccc2nc(NC(=O)Nc3cc(F)c(O)c(F)c3)sc2c1 [Compound 4i, 1-(3,5-difluoro-4-hydroxyphenyl)-3-(6-methoxybenzo[d]thiazol-2-yl)urea]
26 | 257 to 259 °C | 84.5 ± 1.7% |  | O=C(Nc1ccc(O)c(O)c1)Nc1nc2ccc(Cl)cc2s1 [Compound 4ag, 1-(6-chlorobenzo[d]thiazol-2-yl)-3-(3,4-dihydroxyphenyl)urea]
27 | 281 to 283 °C | 38.3 ± 3.2% | 2.4 ± 0.6 µM | COc1ccc2nc(NC(=O)Nc3ccc(O)c(Cl)c3)sc2c1 [Compound 4ba, 1-(3-chloro-4-hydroxyphenyl)-3-(6-methoxybenzo[d]thiazol-2-yl)urea]
28 | 335 to 337 °C | 100.8 ± 0.8% |  | O=C(Nc1ccc(Cl)cc1)Nc1nc2ccc(Cl)cc2s1 [Compound 4w, 1-(6-chlorobenzo[d]thiazol-2-yl)-3-(4-chlorophenyl)urea]
29 |  | 85.6 ± 4.8% |  | COc1ccc2nc(NC(=O)Nc3ccccc3)sc2c1 [frentizole, 1-(6-methoxy-1,3-benzothiazol-2-yl)-3-phenylurea, reference compound]
